Assay results as given in article PMC2131780, “A Tale of Switched Functions: From Cyclooxygenase Inhibition to M-Channel Modulation in New Diphenylamine Derivatives” (PLoS ONE, 2007).
Read-outs that look alike come from different tables or passages of the source.

Columns and labels:
[1] = tested on: COX enzymes (CT26 mouse colon adenocarcinoma cells); assay: COX inhibition, PGE2 production in CT26 cells; type: cell-based
From the text: (§1) In addition, the aromatic rings of the diphenylamine moiety were substituted with different electron donating or withdrawing groups. In a first screen, two parameters were checked: (a) the non-selective inhibition of COX-1/COX-2 enzyme activities, measured by the production of PGE2 in cultured mouse colon adenocarcinoma (CT26) and mouse Lewis lung carcinoma cells (D122) cells; (b) the M-channel activity, measured by the heterologous coexpression of Kv7.2 and Kv7.3 subunits in Chinese hamster ovary (CHO) cells.
(§2) Mouse colon adenocarcinoma CT26 and mouse Lewis lung carcinoma D122 cells were grown in DMEM (D122) or RPMI (CT26) supplemented with 10% fetal calf serum, 4% glutamine, 1% penicillin-streptomycin-nystatin and 3% non essential amino acids (D122) and maintained in a humidified 37°C incubator with 5% CO2. For the COX assays, cells were grown onto 24 multiwell plates. Before the assay, cells were washed with serum-free medium; then tested compounds were added to the medium and incubated for 30 min at 37°C after which 30 µM arachidonic acid was added and incubated for additional 20 min. At the end of the incubations, 10 µM indomethacin was added to stop the reaction and medium was transferred to another 24 multiwell plate for measuring PGE2 production by radioimmunoassay (DuPont-NEN; Boston, MA) according to manufacturer protocol. Protein determination was assayed on scraped cells and was used to normalize the amount of PGE2 production. Assays with purified ovine COX-1 and human recombinant COX-2 were performed using the COX inhibitor screening assay (Cayman chemical company, Ann Arbor, MI), according to manufacturer protocol.

[2] = tested on: rat hippocampal neurons; assay: Current-clamp recording of cultured hippocampal neurons; type: cell-based
Description: For hippocampal neuronal cultures, Sprague-Dawley rat embryos (E18) were removed by caesarian section and their hippocampi were dissected out. The tissue was digested with papain for 20 min, triturated to a single-cell suspension, and plated at a density of 40,000 cells per ml on a substrate of bovine collagen type IV and 100 µg/ml poly-L-lysine in 13 mm diameter glass coverslips of a 24-multiwell plate. The culture medium consisted of Modified Eagle's Medium containing 5% horse serum (Biological Industries, Beit HaEmek, Israel), B-27 neuronal supplement (Invitrogen, Carlsbad, CA), 100 U/ml penicillin, 100 µg/ml streptomycin, and 2 mM glutamine. D-glucose was supplemented to a final concentration of 6 g/l. Cytosine-1-D-arabinofuranoside (5 µM) was added after 5 days to arrest glial cell proliferation. For electrophysiological recordings hippocampal neurons were used at 10–14 days in culture. All cultures were maintained at 37°C in humidified air containing 5% CO2.
For current-clamp recordings in primary cultured neurons, the patch pipettes were filled with (in mM): 135 KCl, 1 K2ATP, 1 MgATP, 2 EGTA, 1.1 CaCl2, 5 glucose, 10 HEPES, adjusted with KOH at pH 7.4 (315 mOsm). […] A liquid junction potential of about −15.6 mV was measured between the intracellular and saline solutions and corrected on-line. […]

[3] = tested on: primary hippocampal neurons (glutamate and GABA release); assay: Spontaneous and miniature post-synaptic currents in cultured hippocampal neurons; type: cell-based, rat
Description: Because of their slow activation and their lack of inactivation, M-channels could modulate neuronal activity during repetitive spike discharge and tune neurotransmitter release. Figure 8 illustrates the effect of compound 15 on synaptic transmission and transmitter release. Spontaneous excitatory and inhibitory post-synaptic currents (sEPSCs and sIPSCs) were recorded from dense cultures of primary hippocampal neurons, using the voltage-clamp configuration of the whole-cell patch-clamp technique. […] Spontaneous EPSCs were recorded at −70 mV and were pharmacologically isolated by blocking GABAA receptor-mediated inhibitory post-synaptic currents (with 10 µM bicuculline and 30 µM picrotoxin). The sEPSCs were […] mediated by the activation of AMPA receptors and to a lesser extent of NMDA receptors, as they were blocked by 10 µM NBQX and 10 µM AP-5. Thus, sEPSCs reflect the synaptic release of glutamate. Under control conditions, sEPSCs appeared as repetitive bursts whose frequency was variable, ranging from 0.3 to 2 Hz and increasing with the density of the hippocampal culture. […] Consequently, compound 15 reduced by about 50% the total charge transfer as well as the charge transfer within the bursts (Figure 8D–F).
For hippocampal neuronal cultures, Sprague-Dawley rat embryos (E18) were removed by caesarian section and their hippocampi were dissected out. […]
Spontaneous excitatory postsynaptic currents (EPSCs) were recorded in the voltage-clamp configuration of the whole-cell patch-clamp technique at a holding potential of −70 mV as previously described; the extracellular solution contained (in mM) 160 NaCl, 2.5 KCl, 10 HEPES, 10 glucose, 2 CaCl2; pH 7.3 (325 mOsm), to which 30 µM picrotoxin and 10 µM bicuculline methyl iodide were added. […] Spontaneous inhibitory postsynaptic currents (IPSCs) were recorded at a holding potential of −70 mV; the extracellular solution contained (in mM) 160 NaCl, 2.5 KCl, 10 HEPES, 10 glucose, 2 CaCl2; pH 7.3 (325 mOsm), to which 10 µM NBQX and 10 µM AP-5 were added. […]

[4] = tested on: COX enzymes (D122 mouse Lewis lung carcinoma cells); assay: COX inhibition, PGE2 production in D122 cells; type: cell-based; settings: average of two experiments in triplicate
From the text: as §1, §2

O=C(Cc1cc([N+](=O)[O-])ccc1Nc1c(Cl)cccc1Cl)OCCO [Compound 15]
IC50 ([1]; average of two experiments in triplicate, read-out: COX inhibition (IC50, µM) CT26): 0.048 µM
IC50 ([1]; read-out: COX inhibition IC50, typical experiment (Figure 1)): 0.069 µM
number of evoked action potentials, hippocampal neurons ([2]; 25 µM, 75–200 pA for 400 ms): 2.1±0.5
hyperpolarization of hippocampal neurons ([2]; exposed to compound): −8.5 mV
reduction of sEPSCs total charge transfer and charge transfer within bursts ([3]; 25 µM, holding −70 mV): about 50%
inhibition at 25 µM ([3]; Rattus norvegicus, Hippocampal neuron, 25 µM, holding −70 mV, read-out: inhibition of sIPSCs frequency of spontaneous occurrence): > 98%
effect on amplitude and kinetics of miniature EPSCs and IPSCs ([3]; not shown): did not affect
IC50 [4]: 0.229 µM
